Reference: patent US20030083374A1, “NAALADase inhibitors useful as pharmaceutical compounds and compositions” (priority 1998, published 2003)

Tests used:
[1] = tested on: rat MCAO model of stroke; assay: in vivo assay on brain injury following MCAO; parameters: species or system Sprague-Dawley rats
Protocol: The control group received Hepes buffered saline.
Four drug treated groups received Compound 1. For each rat, the treatment was initiated at 60 minutes post middle cerebral artery occlusion (MCAO) by an IV bolus injection which was immediately followed by IV infusion for 4 hours at rate of 0.5 ml/hr. Group 1 (n=9) received a dose of 100 mg/kg IV bolus followed by 20 mg/kg/hr IV infusion for 4 hours. Group 2 (n=11) received a dose of 30 mg/kg IV bolus followed by 6 mg/kg/hr IV infusion for 4 hours. Group 3 (n=9) received a dose of 10 mg/kg IV bolus followed by 2 mg/kg/hr IV infusion for 4 hours. Group 3 rats were also treated at 120 minutes, 180 minutes and 360 minutes post-occlusion. Group 4 (n=8) received a dose of 3 mg/kg IV bolus followed by […] IV infusion for 4 hours.
Two additional drug treated groups received 2-(3-sulfanylpropyl)pentanedioic acid. For each rat, the treatment was initiated at 120 minutes post middle cerebral artery occlusion (MCAO) by an IV bolus injection which was immediately followed by IV infusion for 4 hours at rate of 0.5 ml/hr. Group 5 received a dose of 30 mg/kg IV bolus followed by 6 mg/kg/hr IV infusion for 4 hours. Group 6 received a dose of 10 mg/kg IV bolus followed by 2 mg/kg/hr IV infusion.
Twenty two hours following the reperfusion, the rats were euthanized and their brains were removed. Seven coronal sections (2 mm thick) were taken and stained with 1% solution of 2,3,5-triphenyl-tetraxolium chloride (TTC) for 20 minutes and then fixed in 10% formalin. The anterior and posterior surface of the most rostral brain section and the posterior surface of each of the remaining 6 sections were imaged. The quantification of infarct size of each brain was obtained using a computer aided-digital imaging analysis system (LOATS). The brain regions completely lacking TTC-staining were characterized as representative of infarcted tissue. The total infarct volume for each rat was calculated by numeric integration of the respective sequential brain areas.
Male Sprague-Dawley rats (260-320 g) were used. They were individually housed and allowed free access to food and water. Two days prior to the experiment, they were given restricted food if necessary to maintain the body weight Each rat received two surgeries: femoral vein cannulation for IV infusion and MCAO. During surgeries, the rat was anesthetized with 1.5% halothane delivered in oxygen via an inhalation mask. The body temperature was monitored and regulated at normothermic level using a homeothermic heating system. First, a catheter was inserted into the left femoral vein. Thirty minutes later, the rat was reanesthetized for MCAO surgery. The MCAO was achieved using the endovascular suture method described by Long et al., Stroke, Vol. 20, pp. 84-91 (1989). Specifically, the right external carotid artery (ECA) was exposed, coagulated and transected. A 3-0 monofilament nylon suture with a blunted tip and a coat of 0.05% Poly-1-Lysine was introduced into the proximal stump of the ECA via an arteriotomy. It was advanced 22 mm from the carotid bifurcation until it lodged in the proximal region of the anterior cerebral artery, thereby occluding the origin of the MCA. The rats were allowed to wake up; 2 hours later, the rats were reanesthetized for reperfusion, during which the nylon suture was retracted to the stump of the ECA allowing blood recirculation to the MCA.

[2] = tested on: acetic acid (0.6%) induced writhing; assay: acetic acid model of pain (writhing); type: in vivo, mice; details: pretreated
Text: One source of neuronal glutamate is thought to derive from the abundant neuropeptide NAAG which is hydrolyzed by NAALADase to liberate free glutamate. The inventors hypothesized that inhibition of NAALADase could limit pain by preventing this source of glutamate. To test this hypothesis, the inventors examined the possible antinocipetive effects of several NAALADase inhibitors in the formalin-, acetic acid- and chronic constrictive injury (CCI; “Bennett model”) models of pain. […] On day 7, 5% formalin was injected into the dorsum of the rat's hindpaw.

[3] = tested on: BB/W diabetic rats; assay: progression of neuropathic pain in BB/W diabetic rats, thermal nociception; type: in vivo, Male BB/W rats; details: 10 mg/kg i.p. daily; starting after 4 weeks, through six months
Text: (§1) Male BB/W rats (BR1, Mass) spontaneously develop a cell mediated autoimmune destruction of pancreatic B cells, resulting in onset of insulin-dependent (Type I) diabetes (Guberski 1994). […] This renders them valuable for experimental trials of new compounds for future treatments of this major disorder. In the present study, Compound 1 and Compound 2 were examined for their ability to alter the progression of diabetic neuropathy. The rats received daily injection of Compound 1 or Compound 2 (10 mg/kg i.p.) or vehicle, starting at the onset of diabetes (hyperglycemia) and up to 6 months thereafter. Another group of non-diabetic rats also receiving vehicle were tested. All animals were continuously monitored for body weight, urine volume, blood sugar and glycated haemoglobin. In the first month of the study, all animals were tested for thermal nociception in a Hargreaves apparatus, weekly. After the first month this was done biweekly and then monthly. The testing consists of directing an infrared heat source onto the […] surface of the rat hindpaw and noting the time taken for the animal to remove its paw (for detailed method see Hargreaves et al. 1998). Each animal was tested 8 times and the mean withdrawal latency noted.

[4] = tested on: BB/W diabetic rats; assay: nerve conduction velocity in BB/W diabetic rats; type: in vivo, Male BB/W rats; details: 10 mg/kg daily; starting at 8 weeks, through six months
Text: as §1, with “Each animal was tested 8 times and the mean withdrawal latency noted.” left out
Nerve conduction velocity was also measured every two weeks through the first eight weeks of treatment and every month thereafter through to the six months of treatment (see De Koning et al. 1987 for method details). […]

[5] = tested on: PCP-treated rats; assay: in vivo assay on schizophrenia (PCP model); details: 50 mg/kg i.p. before PCP (5 mg/kg)
Protocol: Rats treated with PCP develop symptoms, such as frantic running and incessant head-turning, that parallel psychotic symptoms in humans. Thus, to examine the effects of NAALADase inhibition on schizophrenia, rats were treated intraperitoneally with Compound 1 (50 mg/kg), Compound 2 (50 mg/kg) or a vehicle (H2O) before they received PCP (5 mg/kg). Head rolling scores were measured for over 2 hours following PCP injection.

## O=C(O)CCC(CCS)C(=O)O (stereo not drawn) [Compound 1, 2-(2-sulfanylethyl)pentanedioic acid]
[1]; Group 1: 100 mg/kg IV bolus + 20 mg/kg/hr IV infusion 4 hours, 60 minutes post MCAO
  mean total brain infarct volume: 123±31 mm^3
[1]; Group 2: 30 mg/kg IV bolus + 6 mg/kg/hr IV infusion 4 hours, 60 minutes post MCAO
  mean total brain infarct volume: 141±78 mm^3
[1]; Group 3: 10 mg/kg IV bolus + 2 mg/kg/hr IV infusion 4 hours, treated at 60 minutes post-occlusion
  mean total brain infarct volume: 152±32 mm^3
[1]; Group 4: 3 mg/kg IV bolus + 3 mg/kg/hr IV infusion 4 hours, 60 minutes post MCAO
  mean total brain infarct volume: 117±22 mm^3
[1]; administered 60, 120, 180 and 360 minutes post-occlusion
  neuroprotection in rat MCAO model of stroke: neuroprotective
[1]; dose 1 mg/kg, 60 minutes post MCAO
  % Protect: 20%
[1]; dose 3 mg/kg, 60 minutes post MCAO
  % Protect: 52%
[1]; dose 10 mg/kg, 60 minutes post MCAO
  % Protect: 50%
[1]; dose 10 mg/kg, 120 minutes post MCAO
  % Protect: 33%
[1]; dose 10 mg/kg, 180 minutes post MCAO
  % Protect: 47%
[1]; dose 10 mg/kg, 360 minutes post MCAO
  % Protect: 50%
[1]; dose 30 mg/kg, 60 minutes post MCAO
  % Protect: 52%
[1]; dose 100 mg/kg IV bolus, 60 minutes post MCAO
  % Protect: 44%
[1]; four Compound 1 treated groups
  infarct size vs. vehicle treated rats: significantly smaller infarct size
[2]
  acetic acid (0.6%) induced writhing vs. vehicle control: significantly attenuated
[3]
  withdrawal latencies vs. diabetic vehicle-treated rats: longer withdrawal latencies
[4]
  nerve conduction deficits vs. diabetic controls receiving vehicle: significantly less severe nerve conduction deficits
[5]
  locomotor-activating effects of PCP (head rolling scores): significantly reduced
